One test concerns WIF-1. The note with it: Colon-Ca-Zelllinien; cited from earlier work.
The test system of a further test is beta-Catenin. Nature of the test: Anti-(active-)beta-catenin immunohistochemistry on polyp single-cell suspensions (chamber slides). The settings on record: 24 h incubation. It counts as cell-based, Mensch. The method, then: Im entzündlichen Infiltrat des Polyposisgewebes ließ sich immunhistochemisch nukleäres beta-Catenin nachweisen.
Es wurde eine Anti-Active-beta-Catenin-Immunhistochemie auf mit dem GSK-3-Inhibitor SB216763 für 24 h inkubierter Polyposis-Einzelzellsuspension (Chamber Slide) durchgeführt.

The subject of another test is Polyposis-Primärgewebe. Nature of the test: Cytokine release from polyposis primary tissue. It counts as cell-based, Mensch. The settings on record: incubation of primary tissue.

The structures appear in SMILES notation. “Also recorded” adds a separate entry of the source.

For the compound `CC(=O)Oc1ccccc1C(=O)O` [Acetylsalicylsäure], the “Regulation von WIF-1” value in the test on WIF-1 is “Hochregulation”.
In the case of `Cn1cc(C2=C(c3ccc(Cl)cc3Cl)C(=O)NC2=O)c2ccccc21` [SB216763], in the test with beta-Catenin, the “Akkumulation von beta-Catenin im Zytoplasma” value was “Akkumulation von beta-Catenin im Zytoplasma; also recorded: deutliche Anreicherung” and the “Translokation von beta-Catenin in den Zellkern” value is on record as “Translokation von beta-Catenin in den Zellkern”. Further, in the test on Polyposis-Primärgewebe, the “Ausschüttung von IL-6” value is “verminderte Ausschüttung” and the “Ausschüttung von IL-8” value is “verminderte Ausschüttung”.

Source of the values: EP3325012B1, “CINEOLE-CONTAINING COMPOSITION FOR TREATING NOSE POLYPS” (Maria Clementine Martin Klosterfrau Vertriebsgesellschaft …, priority 2015, dated 2017).
